According to PMC4961458 (eLife, 2016):
Like-named read-outs stand apart in the source and are kept apart here.

Legend:
GR = biological target: T1, GR (Homo sapiens, UniProt P04150); experiment: GR transcriptional reporter assay, agonist mode (CV1 cells); type: cell-based; details: CV-1; % of maximal dexamethasone-stimulated activity
T1 sequence (P04150 1-777): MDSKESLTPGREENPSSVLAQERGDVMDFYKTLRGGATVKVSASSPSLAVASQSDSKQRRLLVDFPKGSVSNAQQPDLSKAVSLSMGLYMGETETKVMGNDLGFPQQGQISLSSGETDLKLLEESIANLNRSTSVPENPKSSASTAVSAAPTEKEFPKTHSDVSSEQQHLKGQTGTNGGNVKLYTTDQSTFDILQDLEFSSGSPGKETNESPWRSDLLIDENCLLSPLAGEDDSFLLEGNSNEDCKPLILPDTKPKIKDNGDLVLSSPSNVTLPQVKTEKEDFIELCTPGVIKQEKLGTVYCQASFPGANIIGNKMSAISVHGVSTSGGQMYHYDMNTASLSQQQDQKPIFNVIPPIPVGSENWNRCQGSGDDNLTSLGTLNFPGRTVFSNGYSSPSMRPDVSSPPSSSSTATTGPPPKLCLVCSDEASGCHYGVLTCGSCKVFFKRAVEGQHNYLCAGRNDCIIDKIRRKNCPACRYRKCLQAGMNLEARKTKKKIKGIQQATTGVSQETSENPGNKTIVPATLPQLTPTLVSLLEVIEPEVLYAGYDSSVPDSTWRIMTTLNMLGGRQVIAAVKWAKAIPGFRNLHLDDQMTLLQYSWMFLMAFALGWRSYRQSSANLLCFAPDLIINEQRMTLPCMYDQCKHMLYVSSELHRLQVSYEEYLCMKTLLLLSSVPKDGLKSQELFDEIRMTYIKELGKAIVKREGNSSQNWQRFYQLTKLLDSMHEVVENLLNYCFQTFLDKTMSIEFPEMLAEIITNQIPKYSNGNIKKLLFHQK
Protocol: CV1 cells were maintained in MEM supplemented with 10% FBS. Transcriptional assays were performed by seeding 12 mL of cells at a density of 250,000 cells/mL into a T-75 cell culture flask in MEM supplemented with 5% charcoal-stripped serum and allowed to attach overnight. Cells were transiently transfected using FuGENE 6 (Roche Applied Science). […] Transfected cells were incubated overnight then split into four 96-well tissue culture plates and incubated for 4 hr followed by compound addition. […] The final agonist concentration used in the antagonist assays was 10 nM.

MCF7 ER.WT cells = experiment: Cell viability, MCF7 ER.WT cells (7 days); type: cell-based; details: Homo sapiens; for EC50: absence of estrogen; for IC50: presence of estrogen (0.1 nM), read-out: Cell viability IC50, ER.WT +E2
MCF7 cells = experiment: MCF7 cell viability assay (CellTiter-Glo); type: cell-based, human; details: for IC50 / EC50: Homo sapiens; for EC50: absence of exogenous estradiol, Figure 1E, read-out: MCF7 cell viability EC50 (-E2)
[1] = system: Ishikawa endometrial cells; experiment: Alkaline phosphatase activity in Ishikawa endometrial cells; type: cell-based, human; details: absence of estrogen
[2] = system: HCI-003 patient derived xenograft tumors; experiment: HCI-003 patient derived xenograft efficacy; type: in vivo, mice; details: for Tumor growth response, HCI-003 PDX: 1 mg E2 beeswax pellets, GDC-0810 10 and 100 mg/kg/day p.o., fulvestrant 200 mg/kg 3x/week s.c., 43 days
Source text: Like MCF7, HCI-003 tumors are ER+, E2 dependent and tamoxifen sensitive (Figure 4—figure supplement 1C). […] Lack of efficacy in this ER-negative model is consistent with the GDC-0810 mechanism of action being selectively mediated through ER.
The HCI-003 model was established at the University of Utah, Huntsman Cancer Center via direct implantation of both primary tumor material into immune compromised mice ([DeRose et al., 2011]). HCI-003 is wild-type at the ESR1 ligand binding domain. Exogenous estradiol is required for robust growth of this patient derived tumor line, and is supplied in the form of estradiol impregnated beeswax pellets. Tumor fragments obtained from the Huntsman Cancer Center were surgically implanted into the cleared mammary fat pad of 19 day old female NOD.CB17-Prkdc^scid/NcrCrl mice (Charles River Laboratories). The right mammary fat pad of recipient animals was exposed by a 1 cm incision on the ventral mid-line at the level of the fourth mammary. The blood vessels were cauterized and the fat pad blunt dissected from the abdominal wall and skin. Tumor fragments were excised from donor animals, chopped into fragments approximately 8 mm^3 (2 × 2 × 2 mm), implanted in the region of the cleared mammary fat pad, and the incision was closed with wound clips. Estradiol impregnated beeswax pellets were implanted subcutaneously into the interscapular space of recipient animals on the day of tumor implant. Recipient animals were ovariectomized 19 days after tumor fragment implant. One group of animals was designated as a control for estradiol independent tumor growth (Vehicle-E2) and the estradiol impregnated pellets were excised on the first day of dosing. All mice were housed and maintained according to the animal-use guidelines of the Institutional Animal Care and Use Committee (IACUC), conforming to California State legal and ethical practices.

MCF7 tumors = experiment: MCF7 xenograft efficacy; type: in vivo, mice; details: […]60 day E2 pellets; GDC-0810 100 mg/kg/day p.o.; fulvestrant clinically relevant dose (50 then 25 mg/kg s.c.) and 200 mg/kg 3 times per week; 28 days
WHIM20 tumors = type: in vivo, mice; details: no E2 pellets; GDC-0810 100 mg/kg/day; tamoxifen 60 mg/kg/day; fulvestrant 50 mg/kg days 1, 3 and 7, 25 mg/kg weekly thereafter; 35 days
Source text: Figure 8. […] (B) Gene expression analysis of WHIM20 tumors after 4 days of dosing, harvested 8 hr after the final dose. […] (E) WHIM20 tumors were implanted in mice without supplemental 17β-estradiol pellets.
The WHIM20 patient derived xenograft model (WHIM20) was established via direct implantation of metastatic tumor material into immune compromised mice at Washington University in St. Louis ([Li et al., 2013]).
Tumors were established from fragments obtained from Washington University by subcutaneous implantation via 10G trocar into the right flank of 6–7 week old female NOD.CB17-Prkdc^scid/NcrCrl mice (Charles River Laboratories) and NOD.Cg-Prkdc^scid Il2rg^tm1Wjl/SzJ mice (Jackson Laboratories). Tumor line was propagated by serial transplantation. Animals were ovariectomized prior to initiation of treatment.

[3] = MCF7, 168 h, 7 days, read-out: Cell viability EC50, ER.WT -E2
[4] = 120 h, MCF7, 5 d incubation, read-out: Cell viability CellTiter-Glo IC50
[5] = MCF7, 120 h, read-out: MCF7 cell viability IC50 (+ 0.1nM E2), presence of 0.1 nM estradiol, 5 day, Figure 1F

Structure (SMILES) | Emax (GR) | EC50 (MCF7 ER.WT cells; [3]) | IC50 (MCF7 ER.WT cells; MCF7, 168 h, 7 days) | IC50 (MCF7 cells; [4]) | IC50 (MCF7 cells; [5]) | EC50 (MCF7 cells; MCF7, 120 h, 5 day) | Cell viability CellTiter-Glo Emax (MCF7 cells; MCF7, 5 d incubation) | Alkaline phosphatase activity [1] | Tumor growth response, HCI-003 PDX [2] | Anti-tumor activity, HCI-003 PDX (Figure 4—figure supplement 1C) ([2]; tamoxifen 60 mg/kg/day orally, fulvestrant 200 mg/kg 3x/week, 38 days) | Tumor growth response, MCF7 xenograft (MCF7 tumors) | Tumor growth response, WHIM20 PDX (WHIM20 tumors) | EC50 (MCF7 ER.WT cells; MCF7, Figure 6—figure supplement 1D, read-out: Cell viability EC50, ER.WT (-E2))
CC/C(=C(\c1ccc(O)cc1)c1ccc(OCCN(C)C)cc1)c1ccccc1 [4-OH Tam, 4-hydroxytamoxifen] | 1.99 ± 1.52% | 3.2 nM | 19 nM | 0.53 ± 0.25 nM | 30 nM | 3.9 nM | 48.0 ± 4.7 % E2 | robustly increases alkaline phosphatase activity | – | – | – | – | –
C[C@]12CC[C@@H]3c4ccc(O)cc4C[C@@H](CCCCCCCCC[S+]([O-])CCCC(F)(F)C(F)(F)F)[C@H]3[C@@H]1CC[C@@H]2O (stereo partly shown) [Fulvestrant] | – | 1.1 nM | 23 nM | 0.56 ± 0.7 nM | 9 nM | 0.5 nM | 25.4 ± 3.7 % E2 | shows no such effect | induced tumor regression | display anti-tumor activity | only modest tumor growth inhibition | tumor growth inhibition | –
CC/C(=C(/c1ccc(/C=C/C(=O)O)cc1)c1ccc2[nH]ncc2c1)c1ccc(F)cc1Cl [GDC-0810] | 1.78 ± 1.21% | 1 nM | 28 nM | 2.5 ± 2.1 nM | 25 nM | 1 nM | 24.6 ± 3.3 % E2 | modestly increases alkaline phosphatase activity | drove tumor stasis | – | caused tumor regressions | induced tumor stasis | 0.7 nM
